Test results taken from patent publication US9850247B2 (Almac Discovery Limited, priority 2013, dated 2017).

What was measured:
[1] = Kinetic solubility in PBS buffer (Method 5); format: physicochemical; settings: aqueous buffer, kinetic from dmso stock; PBS buffer pH 7.4
Procedure: [formula] [formula] [formula] where V=Incubation volume (μL)/number of cells Method 5: Determination of Kinetic Solubility (in PBS Buffer)
Test compounds (5 μL; 10 mM DMSO stock) were added to 245 μL 10 of PBS buffer pH 7.4 (Dulbecco A) in a Millipore MultiScreen® Solubility Filter plate and mixed at 300 rpm at room temperature on a plate shaker for 90 minutes. Meanwhile 5-points calibration curves for each compound were established in a mixture of acetonitrile/PBS buffer 15 (top concentration 200 μM). After filtration and matrix match, the calibration and assay plates were analysed on a Bioteck Synergy 4 plate reader (240-400 nm). Final concentration of the test compound in the filtrate was calculated using the slope of the calibration curve. All 20 measurements were carried out in triplicate.

[2] = target: T1, human ether a go-go related gene (hERG) K′ channel (Homo sapiens, UniProt Q12809); experiment: hERG activity, IonWorks patch clamp electrophysiology (Method 6); format: cell-based
T1 construct: Essen BioScience
Procedure: Method 6: Determination of hERG Activity
Compounds were tested for inhibition of the human ether a go-go related gene (hERG) K′ channel using IonWorks patch clamp electrophysiology at Essen BioScience. 8-Point concentration-response curves of the effect of compound on hERG current as a percentage of pre-compound signal were generated using 3-fold serial dilutions from 11 μM and results are reported as IC50 in μM.

[3] = CLint estimates using human liver microsomes (Method 4); format: in vitro ADME; settings: pH 7.4, 1 μM compound, read-out: Mics - CLint (HLM CLint)
Summary of the method: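 Depletion measured by LC/MS/MS in MRM mode over 2–50 min after starting reactions with 1 mM NADPH. Incubations used 0.5 mg/mL human liver microsomal protein, 1 μM compound, 0.1% DMSO, pH 7.4 phosphate buffer, 37 °C. ln peak area plotted against time; the gradient gave t½ and intrinsic clearance.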

[4] = tested on: phospho-cdc2 (Tyr15) in HT-29 cells; experiment: Effect on phosphorylation of cdc2 at Tyr15, PathScan ELISA (Method 2); format: cell-based; settings: Homo sapiens, 8 h, eight hours incubation, read-out: HT29 pCDC2 method 2
Procedure: Method 2: Determining the Effect of Compounds on the phosphorylation of cdc2 at Tyr15
The colorectal cancer cell lines HT-29 and HCT-116 were purchased from the ATCC and routinely maintained in McCoy's Medium (Invitrogen) supplemented with 10% Foetal Calf Serum.
The cells were trypsinised from their growing vessel and counted, 100 μL of cell suspension containing 6000 cells was pipetted into black 96 well Co-star plates and incubated overnight to allow adherence to the surface at a temperature of 37° C. and an atmosphere of 5% CO2. Test compounds were formulated in DMSO and diluted in foetal calf serum supplemented medium. Incubating medium was removed by aspiration and diluted drug supplemented medium added to each well.
The plate was returned to the incubator for an additional eight hours at 37° C. and an atmosphere of 5% CO2. Post incubation, the drug supplemented medium was aspirated from each well and the cells were washed once in ice-cold phosphate buffered saline (PBS). 100 μL of cell lysis buffer (Cell Signalling Technologies #9803) containing 20 mM Tris, 150 mM NaCl, 1 mM EDTA, 1 mM EGTA, 1% Triton-X100, 2.5 mM sodium pyrophosphate, 1 mM glycerophosphate, 1 mM Na3VO4 and 1 μg/mL leupeptin was added to each well of the 96 well plate and incubated at 4° C. for 30 min. The samples on the plate were snap frozen at −80° C. until required. Immediately before the continuation of the assay, the sample plate was thawed and centrifuged at 4° C. for 10 min and the supernatant transferred to secondary tubes or 96 well plate.
Cell supernatant was mixed in a ratio of 1:1 with sample dilutent buffer and vortexed for one minute. 100 μL of diluted sample was pipetted into pre-coated plates containing a rabbit polyclonal antibody for phospho-cdc2 (Tyr15) (Cell Signalling Technologies PathScan kit #7176). The plate was sealed and incubated overnight at 4° C.
The plate seal was removed and the well contents aspirated, followed by 3×5 min washes with 200 μL of diluted wash buffer. Between each wash the plate was tapped firmly onto blotting paper to ensure the removal of all kit solution. 100 μL of kit detection antibody was added to each well and the plate re-sealed and incubated at 37° C. for 1 h. Post incubation the plate was washed and processed in a similar manner to that previously described.
100 μL of horseradish peroxidise-linked secondary antibody was added to each test well, the plate sealed and incubated for thirty minutes at 37° C. Post incubation, the plate was washed as previously stated, followed by the addition of 100 μL of 3,3′,5,5′ tetramethylbenzidine (TMB reagent). The plate was sealed and incubated at RT for 30 min.
100 μL of stop solution was added to each well and the underside of the plate wiped with a lint-free tissue, prior to spectrophotometric determination. Absorbance from each well was read at 450 nm within 30 min of the addition of the stop solution.
The percentage of phospho-cdc2 was calculated compared to DMSO control and plotted versus the concentration of inhibitor using GraphPad Prism. Data was fitted using non-linear regression analysis and IC50 values generated.

[5] = target: T2, Wee-1 kinase (Homo sapiens, UniProt P30291); experiment: Measurement of Wee-1 kinase activity (ADP-Glo luminescent kit); format: biochemical
T2 construct: purchased Invitrogen PV3817
Summary of the method: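 ADP-Glo luminescence reads ADP made over 1 h at RT, after an aliquot of 30 μM ATP and 2.0 μg/mL poly(Lys,Tyr 4:1) substrate. Before that, the kinase sat 30 min with inhibitor in Tris-HCl/MgCl2 buffer with BSA and DTT. IC50 came from regression of percent inhibition.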

T2 sequence (P30291 whole entry): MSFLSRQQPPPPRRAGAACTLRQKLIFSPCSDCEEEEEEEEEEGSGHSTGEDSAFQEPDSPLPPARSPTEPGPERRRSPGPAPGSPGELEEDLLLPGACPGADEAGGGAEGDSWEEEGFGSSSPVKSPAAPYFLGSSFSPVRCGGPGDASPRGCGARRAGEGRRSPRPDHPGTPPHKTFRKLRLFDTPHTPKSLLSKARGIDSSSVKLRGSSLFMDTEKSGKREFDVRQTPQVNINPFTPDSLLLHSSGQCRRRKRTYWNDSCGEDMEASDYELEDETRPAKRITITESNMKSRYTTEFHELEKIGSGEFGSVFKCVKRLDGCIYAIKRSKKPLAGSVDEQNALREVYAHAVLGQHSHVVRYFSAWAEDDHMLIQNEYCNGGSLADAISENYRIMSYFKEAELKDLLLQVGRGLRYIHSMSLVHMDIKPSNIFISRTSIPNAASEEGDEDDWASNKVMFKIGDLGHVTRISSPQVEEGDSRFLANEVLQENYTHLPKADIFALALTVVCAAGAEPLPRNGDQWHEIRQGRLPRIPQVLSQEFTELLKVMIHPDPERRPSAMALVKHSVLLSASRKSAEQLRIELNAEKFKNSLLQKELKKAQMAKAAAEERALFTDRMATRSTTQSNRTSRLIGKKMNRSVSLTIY
T1 sequence (Q12809 whole entry): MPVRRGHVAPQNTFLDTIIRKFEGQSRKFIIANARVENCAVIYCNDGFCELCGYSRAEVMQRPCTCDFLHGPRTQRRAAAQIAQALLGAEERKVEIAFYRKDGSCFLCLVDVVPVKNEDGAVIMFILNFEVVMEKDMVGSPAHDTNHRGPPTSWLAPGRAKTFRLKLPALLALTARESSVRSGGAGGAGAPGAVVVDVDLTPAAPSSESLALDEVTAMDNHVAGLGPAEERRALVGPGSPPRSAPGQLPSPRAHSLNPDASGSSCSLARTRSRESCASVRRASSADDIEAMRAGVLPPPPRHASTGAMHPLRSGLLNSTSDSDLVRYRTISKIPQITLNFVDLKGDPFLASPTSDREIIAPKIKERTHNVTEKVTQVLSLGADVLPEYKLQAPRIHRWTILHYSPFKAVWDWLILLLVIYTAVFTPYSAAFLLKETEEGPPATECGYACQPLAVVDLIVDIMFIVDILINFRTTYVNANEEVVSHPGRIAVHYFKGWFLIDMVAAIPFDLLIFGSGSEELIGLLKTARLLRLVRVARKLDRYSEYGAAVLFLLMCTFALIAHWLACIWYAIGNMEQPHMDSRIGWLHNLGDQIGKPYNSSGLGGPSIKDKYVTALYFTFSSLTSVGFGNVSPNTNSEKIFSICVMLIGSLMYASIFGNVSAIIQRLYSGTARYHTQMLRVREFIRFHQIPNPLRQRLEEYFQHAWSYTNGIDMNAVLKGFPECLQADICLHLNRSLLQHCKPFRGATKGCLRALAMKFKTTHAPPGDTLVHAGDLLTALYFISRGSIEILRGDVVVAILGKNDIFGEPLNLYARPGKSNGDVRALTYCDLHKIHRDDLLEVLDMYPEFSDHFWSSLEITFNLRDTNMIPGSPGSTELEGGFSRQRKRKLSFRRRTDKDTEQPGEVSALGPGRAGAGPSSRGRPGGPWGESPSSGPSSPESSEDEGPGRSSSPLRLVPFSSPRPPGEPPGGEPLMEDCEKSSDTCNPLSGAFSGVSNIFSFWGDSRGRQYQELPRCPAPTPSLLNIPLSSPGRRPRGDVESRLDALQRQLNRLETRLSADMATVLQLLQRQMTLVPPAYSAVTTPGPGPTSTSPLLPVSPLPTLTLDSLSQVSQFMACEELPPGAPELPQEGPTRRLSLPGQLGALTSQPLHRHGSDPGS

Row | SMILES | solubility kinetic at 90 min [1] [µM] | IC50 [2] [nM] | microsomal CLint at 1 μM [3] [µL/min/mg] | IC50 [4] [nM] | IC50 [5] [nM]
1 | CN1CN(c2c(Cl)cccc2Cl)C(=O)c2cnc(Nc3ccc(N4CCNCC4)cc3)nc21 [drawing 383] | > 150 |  |  |  | 
2 | CN1CN(c2c(Cl)cccc2Cl)C(=O)c2cnc(Nc3ccc(N4CCNCC4)c(CO)c3)nc21 [Example 10, 3-(2,6-Dichlorophenyl)-7-((3-(hydroxymethyl)-4-(piperazin-1-yl)phenyl)amino)-1-methyl-2,3-dihydropyrimido[4,5-d]pyrimidin-4(1H)-one] |  | > 10000 | ≤ 15 | 100 to 1000 | ≤ 10
3 | Cc1cc(Nc2ncc3c(=O)n(-c4c(Cl)cccc4Cl)cc(C)c3n2)ccc1N1CCNCC1 [reference compound] | < 50 |  |  |  | 
4 | Cc1cc(Nc2ncc3c(n2)N(C)CN(c2c(Cl)cccc2Cl)C3=O)ccc1N1CCNCC1 [drawing 385] | > 150 |  |  |  | 
5 | Cc1cn(-c2c(Cl)cccc2Cl)c(=O)c2cnc(Nc3ccc(N4CCNCC4)cc3)nc12 [reference compound] | < 50 |  |  |  | 
6 | CN1CN(c2c(Cl)cccc2Cl)C(=O)c2cnc(Nc3ccc(N4CCN[C@H](CO)C4)cc3)nc21 [Example 20, (S)-3-(2,6-Dichlorophenyl)-7-((4-(3-(hydroxymethyl)piperazin-1-yl)phenyl)amino)-1-methyl-2,3-dihydropyrimido[4,5-d]pyrimidin-4(1H)-one] |  | > 10000 | 15 to 50 | 100 to 1000 | ≤ 10
7 | CN1CN(c2c(Cl)cccc2Cl)C(=O)c2cnc(Nc3ccc(CN4CCNCC4)cc3)nc21 [Example 12, 3-(2,6-Dichlorophenyl)-1-methyl-7-((4-(piperazin-1-ylmethyl)phenyl)amino)-2,3-dihydropyrimido[4,5-d]pyrimidin-4(1H)-one] |  | > 10000 | ≤ 15 | 100 to 1000 | 10 to 100
